Experimental data published in patent US5401762A, “Aminoalkyl-substituted thiazolin-2-ones, the preparation and use thereof” (BASF Aktiengesellschaft, priority 1991, dated 1995).
Counter-ions that a name gives are not always drawn. Like-named read-outs stand apart in the source and are kept apart here.

Molecular target: T1, dopamine D2 receptor (Rattus norvegicus, UniProt P61169)
T1 construct: Striata from rats (Sprague Dawley, Charles River) were homogenized immediately after removal; from tissue; host or cells: rat striatum (Sprague Dawley, Charles River), membranes
Experiment: Receptor binding assay: affinity for the dopamine D2 receptor (3H-ADTN displacement, rat striatal membranes)
Parameters: species or system rat (Sprague Dawley)
Experimental: The effects of the novel compounds can be shown in the receptor binding assay as follows:
Striata from rats (Sprague Dawley, Charles River) were homogenized immediately after removal in 0.32M sucrose solution (0° C.). The homogenate was filtered through gauze, the filtrate was centrifuged at 1000 xg (5 min at 4° C.) and the resulting supernatant was centrifuged at 40000 xg (4° C., 10 min). The residue (membranes) was taken up in incubation buffer (50 mM tris-HCl, 1 mM MgCl2 and 0.1% ascorbic acid, pH 7.4) and incubated at 37° C. for 20 min. The residue was subsequently washed 2×with incubation buffer by resuspension and recentrifugation. The membranes were frozen in portions in liquid nitrogen.
The assay mixtures (1 ml) were composed of membranes (380 μg of protein), 1 nM ^3 H-ADTN (NEN, Dreieich Germany, specific radioactivity 1.4 TBq/mmol) and 0.1 μM SCH 23390 (total binding) or a) with the addition of 50 nM spiperone (non-specific binding) or b) with-test substance. The mixtures were prepared in triplicate.
After the incubation (40 min at 25° C.) the mixtures were filtered through glass fiber filters (Whatman GF/B) and briefly washed with ice-cold washing buffer (Tris-HCl pH 7.4). The radioactivity retained on the filters was determined by liquid scintillation counting. The non-specific binding comprised about 40-50% of the total binding.
The evaluation of the competition plots and the determination of the dissociation constant took place by iterative non-linear regression analysis based on the "ligand" program (Muson and Rodbard: Anal. Biochem. 107 (1980) 220).

[1] = rat striatal membranes (380 μg protein), 1 nM 3H-ADTN, 0.1 μM SCH 23390, 40 min at 25° C., non-specific: 50 nM spiperone, read-out: Affinity of the test substances for the dopamine D2 receptor, Ki

T1 sequence (P61169 whole entry): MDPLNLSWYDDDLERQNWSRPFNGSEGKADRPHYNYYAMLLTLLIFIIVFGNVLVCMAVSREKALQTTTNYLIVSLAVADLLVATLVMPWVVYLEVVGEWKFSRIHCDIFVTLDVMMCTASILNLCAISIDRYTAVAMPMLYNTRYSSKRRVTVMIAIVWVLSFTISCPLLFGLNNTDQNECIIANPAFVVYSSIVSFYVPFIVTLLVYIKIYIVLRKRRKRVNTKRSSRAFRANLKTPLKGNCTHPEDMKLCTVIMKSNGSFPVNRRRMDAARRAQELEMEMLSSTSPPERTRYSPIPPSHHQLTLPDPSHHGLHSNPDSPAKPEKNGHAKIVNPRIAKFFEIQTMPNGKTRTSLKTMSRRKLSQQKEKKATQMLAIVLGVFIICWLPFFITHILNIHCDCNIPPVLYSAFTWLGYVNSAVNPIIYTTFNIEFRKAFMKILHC

SMILES	Ki [1]	Ki
Cc1[nH]c(=O)sc1CCCN1CC=C(c2ccccc2)CC1 [Example 1, 4-Methyl-5-[3-(1,2,3,6-tetrahydro-4-phenylpyridyl)propyl]-thiazolin-2-one hydrochloride]		8 nM
Cc1[nH]c(=O)sc1CCCN1CCN(c2cccc(C(F)(F)F)c2)CC1 [Example 13, 4-Methyl-5-[3-(4-(3-trifluoromethylphenyl)piperazinyl)propyl]thiazolin-2-one hydrochloride]	45 nM	
Cc1c(CCCN2CCN(c3ccccc3)CC2)sc(=O)n1C [Example 17, 3,4-Dimethyl-5-[3-(4-phenylpiperazinyl)propyl]thiazolin-2-one dihydrochloride]	40 nM	

More lines, main results first:

Ki [1]	SMILES	Ki
15 nM	Cc1[nH]c(=O)sc1CCCN1CCN(c2ccccn2)CC1 [Example 2, 4-Methyl-5-[3-(4-pyrid-2-ylpiperazinyl)propyl]thiazolin-2-one dihydrochloride]	
12 nM	Cc1[nH]c(=O)sc1CCCN1CCN(c2ncccn2)CC1 [Example 7, 4-Methyl-5-[3-(4-pyrimidin-2-ylpiperazinyl)propyl]thiazolin-2-one dihydrochloride]	
25 nM	CCc1ccccc1N1CCN(CCCc2sc(=O)[nH]c2C)CC1 [Example 10, 4-Methyl-5-[3-(4-(2-ethylphenyl)piperazinyl)propyl]thiazolin-2-one dihydrochloride]	
6 nM	CSc1ccccc1N1CCN(CCCc2sc(=O)[nH]c2C)CC1 [Example 12, 4-Methyl-5-[3-(4-(2-methylthiophenyl)piperazinyl)propyl]thiazolin-2-onehydrochloride]	
6 nM	CCOc1ccccc1N1CCN(CCCc2sc(=O)[nH]c2C)CC1 [Example 14, 4-Methyl-5-[3-(4-(2-ethoxyphenyl)piperazinyl)propyl]thiazolin-2-one dihydrochloride]	
